Experimental data from patent US11266617B2, “Beta-hydroxybutyrate encapsulated PLGA nanoparticle compositions” (Massachusetts Institute of Technology, priority 2018, dated 2022).

Assays:
Hes1-GFP organoids = experiment: Hes1-GFP organoid reporter assay (GFP by flow cytometry); format: cell-based, mouse; settings: GSI 10 uM, βOHB 50 uM, JNJ-26481585 0.2 nM; compared to control
Description: FIGS. 5A-5G show βOHB-mediated HDAC inhibition enhances NOTCH signaling. FIG. 5A, Violin plots of genes related to FIG. 12A: Notch receptor Notch1, Class I HDAC genes: HDAC1/2/3 and Notch target Hes1, based on a previously published scRNA-Seq data (Haber et al., 2017). FIG. 5B, Representative flow cytometry plots (top) and quantification of GFP expression (bottom) Hes1-GFP+ primary organoids exposed to γ-secretase inhibitor (GSI, 10 uM), βOHB (50 uM) and HDAC inhibitor (JNJ-26481585, 0.2 nM), compared to control condition. n=6 samples per treatment from n=3 mice. FIG. 5C, Organoid-forming assay for intestinal crypts isolated from WT and Hmgcs2-KO mice, with combinations of HDAC inhibitor JNJ-26481585 (JNJ) or βOHB treatments or Notch receptor inhibitor (GSI, gamma secretase inhibitor). Quantification and representative images: day-5-to-7 organoids. n=4 mice. Scale bar: 500 μm. Arrows indicate organoids and asterisks indicate aborted crypts. FIG. 5D, Schematic (top) of the mouse model including the timeline of tamoxifen (TAM) and HDACi (JNJ) injection and tissue collection. Nuclear NICD, a measure of Notch activation, by immunofluorescence (IF). […] FIG. 5E, Quantification of OLFM4^+ stem cells, LYZ+ Paneth cells and AB/PAS+ goblet cells in proximal jejunal crypts by IHC. […] FIG. 5G, Quantification and representative images of tdTomato+ Lgr5^+ ISC-derived lineage (cell progenies) by IHC. […] For box-and-whisker plots (FIG. 5C) data were expressed as box-and-whisker 10 to 90 percentiles, Data in bar graph (FIG. 5D) and dot plot (FIG. 5E and FIG. 5G) are expressed as mean+/−s.e.m. *p<0.05, **p<0.01, ***p<0.005, ****p<0.0001. […]
As previously reported and briefly summarized here (Mihaylova et al., 2018), small intestines were removed, washed with cold PBS, opened longitudinally and then incubated on ice with PBS plus EDTA (10 mM) for 30-45 min. […] Isolated crypts for cultures were counted and embedded in Matrigel™ (Corning 356231 growth factor reduced) at 5-10 crypts per μL and cultured in a modified form of medium as described previously (Sato et al., 2009; Yilmaz et al., 2012). […]

Hmgcs2-null ISCs = experiment: Organoid-forming assay with Hmgcs2-null crypts/ISCs; format: cell-based, mouse; settings: for organoid-forming capacity of Hmgcs2-null ISCs: lactate at comparable concentrations, day-5-to-7 organoids
Description: FIGS. 11A-11N. Characterization of fatty acid oxidation (FAO) and ketogenesis in intestinal crypts. Related to FIG. 4. FIG. 11A, Schematic of the mouse model for intestinal Cpt1a deletion with the timeline for tamoxifen (TAM) injections and tissue collection. FIG. 11B, Immunohistochemistry (IHC) for CPT1a (rate limiting step of FAO) and FIG. 11C, HMGCS2 levels in WT and intestinal Cpt1a loss. Images represent one of 5 biological replicates per group. FIG. 11D, βOHB levels in Cpt1a-null intestinal crypts. n=8 measurements for 4 mice per group. […] The image represents one of 8 biological replicates. FIG. 11F, IHC for HMGCS2, indicating intact HMGCS2 expression in the absence of Paneth cell. The image represents one of 8 biological replicates. For FIGS. 11C-11F, Scale bar: 50 um. FIG. 11G, Schematic of the mouse model for intestinal Hmgcs2 deletion with the timeline for TAM injections and tissue collection. FIG. 11H, Hepatic and intestinal HMGCS2 expression by IHC and FIG. 11I, serum βOHB levels in Hmgcs2-KO mice. FIG. 11J, Intestinal CPT1a expression in mice with conditional intestinal loss of Hmgcs2 by IHC, Scale bar: 100 um. The image represents one of 5 biological replicates. […] FIG. 11L, Organoid-forming assay for number of organoids per intestinal crypt, numbers of Alcian blue^+ goblet cells (black arrows) and percentage of tdTomato^+ area per organoid from WT and Hmgcs2-KO (−/−) ISCs, ±βOHB treatments: +, 10 uM and ++50 uM. Representative images: day-5-to-7 organoids. Scale bar: 50 μm. n=5 mice. […] N, Synthesis of glycerol tri((R)-3-hydroxybutyrate).
As previously reported and briefly summarized here (Mihaylova et al., 2018), small intestines were removed, washed with cold PBS, opened longitudinally and then incubated on ice with PBS plus EDTA (10 mM) for 30-45 min. Tissues were then moved to PBS. Crypts were then mechanically separated from the connective tissue by shaking or by scraping, and then filtered through a 70-μm mesh into a 50-mL conical tube to remove villus material and tissue fragments. Isolated crypts for cultures were counted and embedded in Matrigel™ (Corning 356231 growth factor reduced) at 5-10 crypts per μL and cultured in a modified form of medium as described previously (Sato et al., 2009; Yilmaz et al., 2012). Unless otherwise noted, crypt culture media consists of Advanced DMEM (Gibco) that was supplemented with EGF 40 ng mL^−1 (PeproTech), Noggin 200 ng mL^−1 (PeproTech), R-spondin 500 ng mL^−1 (R&D, Sino Bioscience or (Ootani et al., 2009)), N-acetyl-L-cysteine […] (Sigma-Aldrich), N2 1× (Life Technologies), B27 1× (Life Technologies), CHIR99021 3 μM (LC laboratories), and Y-27632 dihydrochloride monohydrate 10 μM (Sigma-Aldrich). Intestinal crypts were cultured in the above-mentioned media in 20-25 μL droplets of Matrigel™ were plated onto a flat bottom 48-well plate (Corning 3548) and allowed to solidify for 20-30 minutes in a 37° C. incubator. Three hundred microliters of crypt culture medium was then overlaid onto the Matrigel™, changed every three days, and maintained at 37° C. in fully humidified chambers containing 5% CO2. Clonogenicity (colony-forming efficiency) was calculated by plating 50-300 crypts and assessing organoid formation 3-7 days or as specified after initiation of cultures. β-Hydroxybutyrate (Sigma, 54965), Quisinostat (JNJ-26481585) 2HCl (Selleckchem, S1096), Entinostat (MS-275) (Selleckchem, S1053), Trichostatin A (Selleckchem, 51045) and γ-secretase inhibitor MK-0752 (Cayman Chemical Company, 471905-41-6) were added into cultures as indicated in the figure legends. Plasmids for Hdac1 CRISPR-deletion (sc-436647), Cre-expression (sc-418923), Cre-expression and Hmgcs2 CRISPR-deletion (VB180615-1103gue) were used for organoid transfection according to manufacturers' instructions.
If not directly used for cultures, crypts were then dissociated into single cells and sorted by flow cytometry. […]

Lgr5+ ISCs = experiment: Intestinal regeneration after irradiation in Hmgcs2-KO mice (Lgr5 lineage tracing); format: in vivo, mouse; settings: Hmgcs2-null mice; 1 mg/kg, 5 i.p. injections; XRT 7.5 Gy×2
Description: FIG. 4F, Schematic (top) of the mouse model including the timeline of tamoxifen (TAM) injection, oral administration of nanoparticle PLGA encapsulated βOHB or non-encapsulated βOHB oligomers, irradiation (XRT, 7.5 Gy×2) and tissue collection. Quantification (bottom) and representative images (right) of tdTomato+ Lgr5^+ ISC-derived lineage (cell progenies) by IHC. Scale bar: 100 μm. n>25 crypts per measurement, n>5 measurements per mouse and n>3 mice per group. […] Data in dot plots were expressed as mean+/−s.e.m. *p<0.05, **p<0.01, ***p<0.005.

intestinal crypts = experiment: HDAC inhibitor treatment of Hmgcs2-null mice, crypt histology (NICD, H3K27ac, OLFM4, LYZ, AB/PAS); format: in vivo, mouse; settings: 1 mg/kg, 5 i.p. injections
class I HDACs = settings: reported (Shimazu et al., 2013); cited from earlier work

**Q.** For `O=C(O)CC[C@H]1CC[C@@](c2cc(F)ccc2F)(S(=O)(=O)c2ccc(Cl)cc2)CC1` [GSI, MK-0752], which “GFP expression of Hes1-GFP organoids (NOTCH target gene expression)” value (Hes1-GFP organoids) is on record?
**A.** The value was “dampened GFP expression”.

**Q.** What about the “restoration of organoid-forming capacity of Hmgcs2-null crypts by βOHB or JNJ under NOTCH blockade” value (Hmgcs2-null ISCs; GSI added to βOHB or JNJ treated cultures) of the same molecule?
**A.** The value was “prevented the ability of either βOHB or JNJ HDAC inhibitor”.

**Q.** With `Nc1ccccc1NC(=O)c1ccc(CNC(=O)OCc2cccnc2)cc1` [MS-275, Entinostat (MS-275)] as the molecule, how does the Hmgcs2-null organoid function (Hmgcs2-null ISCs; 10-to-100 nM) read?
**A.** Its Hmgcs2-null organoid function is “rescued”.

**Q.** And the Hmgcs2-null organoid function (Hmgcs2-null ISCs; doses beyond 10-to-100 nM)?
**A.** The Hmgcs2-null organoid function was “failed to do so”.

**Q.** What does the source list for `Cn1cc(CNCC2CCN(c3ncc(C(=O)NO)cn3)CC2)c2ccccc21` [Quisinostat, Quisinostat (JNJ-26481585) 2HCl]?
**A.** GFP expression of Hes1-GFP organoids (NOTCH target gene expression) (Hes1-GFP organoids): increased GFP expression; crypt organoid-forming capacity of Hmgcs2-null crypts (Hmgcs2-null ISCs; HDAC inhibitor at a dose shown to block HDAC1 activity, alone or with βOHB): rescued crypt organoid-forming capacity; ISC function after injury (Lgr5+ ISCs): rescued; decline in ISCs numbers (OLFM4+ stem cells) (intestinal crypts): rescued; decrease in numbers of H3K27ac or NICD positive crypt cell nuclei (intestinal crypts): prevented these changes; expansion of secretory cell types (intestinal crypts): rescued

**Q.** With `CC(O)C(=O)O` (centres unmarked) [lactate] as the molecule, how does the “organoid-forming capacity of Hmgcs2-null ISCs” value (Hmgcs2-null ISCs; βOHB 10 uM and 50 uM) read?
**A.** Its value is “not”.

**Q.** What about the “organoid-forming capacity of Hmgcs2-null ISCs” value (Hmgcs2-null ISCs; βOHB 10 uM and 50 uM, listed as Lactate) of the same molecule?
**A.** The value was “did not affect”.

**Q.** With `CC(O)CC(=O)O` (stereo not drawn) [βOHB, β-hydroxybutyrate] as the molecule, how does the “GFP expression of Hes1-GFP organoids (NOTCH target gene expression)” value (Hes1-GFP organoids) read?
**A.** The value was “increased GFP expression”.

**Q.** What about the “secretory lineage bias of Hmgcs2-null organoids” value (Hmgcs2-null ISCs; βOHB 10 uM and 50 uM, Alcian blue+ goblet cells) of the same molecule?
**A.** The value was “rectified”.

**Q.** What about the “organoid-forming capacity of Hmgcs2-null ISCs” value (Hmgcs2-null ISCs; βOHB 10 uM and 50 uM) of the same molecule?
**A.** Its value is “rectified”.

**Q.** What about the “generation of tdTomato+ clones by Hmgcs2-null ISCs” value (Hmgcs2-null ISCs; βOHB 10 uM and 50 uM, tdTomato+ area per organoid) of the same molecule?
**A.** The value was “rectified”.

**Q.** What about the “inhibition of class I HDACs” value (class I HDACs) of the same molecule?
**A.** The value was “endogenous inhibitor for class I HDACs”.
